The source of these data is patent US20180326055A1, “NANOSTRUCTURE” (RIKEN, priority 2017, published 2018).

The subject of this assay is HeLa cell. Description: Delivery of PI by nanocapsule into cells (fluorescent microscope). The conditions noted are these: incubated 1 hour. The class given is cell-based. The method, then:
PI-encapsulating nanocapsule was prepared in the same manner as described in Example 2. The PI-encapsulating nanocapsule dispersion was incubated with HeLa cell for 1 hour and washed with a buffer solution several times to remove the nanocapsule and free PI outside completely. The location of PI was evaluated by fluorescent microscope observation. PI alone incubated with HeLa cell for 1 hour was used as a negative control.

As for `CC[N+](C)(CC)CCC[n+]1c(-c2ccccc2)c2cc(N)ccc2c2ccc(N)cc21.[I-].[I-]` [PI, propidium iodide], the “uptake of PI by cells” value is given as “not taken up by cells”.
